Assay results taken from patent US20210386367A1, “DEVICES AND SYSTEMS FOR GASTROINTESTINAL MICROBIOME DETECTION AND MANIPULATION” (Progenity, Inc., priority 2018, published 2021).
≈ marks a conversion by molar mass, not a printed value. Like-named read-outs stand apart in the source and are kept apart here.

Key:
Experiment in all cases: Broth microdilution MIC, 50 clinical isolates
Assay type in all cases: cell-based
Pseudomonas aeruginosa = system: Pseudomonas aeruginosa
Outline: (§1)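 CLSI broth microdilution in cation-adjusted Mueller Hinton broth, with 3% lysed horse blood added for streptococci. Two-fold dilutions, inoculum ~5×10^5 CFU/mL, 35° C for 16-24 hr in ambient air (streptococci with CO2 planchets). MIC = lowest concentration inhibiting visible growth.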

Enterobacter aerogenes = system: Enterobacter aerogenes
Outline: as §1

Proteus mirabilis = system: Proteus mirabilis
Outline: as §1

COc1c(N2C[C@@H]3CCCN[C@@H]3C2)c(F)cc2c(=O)c(C(=O)O)cn(C3CC3)c12 [moxifloxacin]
MIC range (Pseudomonas aeruginosa): 0.12-32 ^ μg/mL
Mode (Pseudomonas aeruginosa): 1 µg/mL
Cumulative percentage of isolates inhibited at MIC (Pseudomonas aeruginosa; 0.5 μg/mL): 20.0%
Number of test isolates at MIC (Pseudomonas aeruginosa; 0.5 μg/mL): 8
Cumulative percentage of isolates inhibited at MIC (Pseudomonas aeruginosa; 1 μg/mL): 58.0%
Number of test isolates at MIC (Pseudomonas aeruginosa; 1 μg/mL): 19
Cumulative percentage of isolates inhibited at MIC (Pseudomonas aeruginosa; 2 μg/mL): 60.0%
Number of test isolates at MIC (Pseudomonas aeruginosa; 2 μg/mL): 1
Cumulative percentage of isolates inhibited at MIC (Pseudomonas aeruginosa; 4 μg/mL): 66.0%
Number of test isolates at MIC (Pseudomonas aeruginosa; 4 μg/mL): 3
Cumulative percentage of isolates inhibited at MIC (Pseudomonas aeruginosa; 8 μg/mL): 78.0%
Number of test isolates at MIC (Pseudomonas aeruginosa; 8 μg/mL): 6
Cumulative percentage of isolates inhibited at MIC (Pseudomonas aeruginosa; 16 μg/mL): 90.0%
Number of test isolates at MIC (Pseudomonas aeruginosa; 16 μg/mL): 6
Cumulative percentage of isolates inhibited at MIC (Pseudomonas aeruginosa; 32 μg/mL): 100.0%
Number of test isolates at MIC (Pseudomonas aeruginosa; 32 μg/mL): 5
MIC50 (Pseudomonas aeruginosa; Pseudomonas aeruginosa, read-out: MIC50): 1 µg/mL (≈ 2.49 µM)
MIC90 (Pseudomonas aeruginosa; Pseudomonas aeruginosa, read-out: MIC90): 16 µg/mL (≈ 39.9 µM)
Number of test isolates at MIC (Pseudomonas aeruginosa; […]): 1
MIC range (Enterobacter aerogenes): 0.03 to 0.5 µg/mL
Mode (Enterobacter aerogenes): 0.12 µg/mL
Cumulative percentage of isolates inhibited at MIC (Enterobacter aerogenes; 0.03 μg/mL): 10.0%
Number of test isolates at MIC (Enterobacter aerogenes; 0.03 μg/mL): 5
Cumulative percentage of isolates inhibited at MIC (Enterobacter aerogenes; 0.06 μg/mL): 50.0%
Number of test isolates at MIC (Enterobacter aerogenes; 0.06 μg/mL): 20
Cumulative percentage of isolates inhibited at MIC (Enterobacter aerogenes; 0.5 μg/mL): 100.0%
Number of test isolates at MIC (Enterobacter aerogenes; 0.5 μg/mL): 2
MIC50 (Enterobacter aerogenes; Klebsiella aerogenes, read-out: MIC50): 0.06 µg/mL (≈ 0.149 µM)
MIC90 (Enterobacter aerogenes; Klebsiella aerogenes, read-out: MIC90): 0.12 µg/mL (≈ 0.299 µM)
Mode (Proteus mirabilis): 0.25 µg/mL
Cumulative percentage of isolates inhibited at MIC (Proteus mirabilis; 0.5 μg/mL): 60.0%
Number of test isolates at MIC (Proteus mirabilis; 0.5 μg/mL): 9
Cumulative percentage of isolates inhibited at MIC (Proteus mirabilis; 1 μg/mL): 64.0%
Number of test isolates at MIC (Proteus mirabilis; 1 μg/mL): 2
Cumulative percentage of isolates inhibited at MIC (Proteus mirabilis; 4 μg/mL): 66.0%
Number of test isolates at MIC (Proteus mirabilis; 4 μg/mL): 1
Cumulative percentage of isolates inhibited at MIC (Proteus mirabilis; 8 μg/mL): 68.0%
Number of test isolates at MIC (Proteus mirabilis; 8 μg/mL): 1
Cumulative percentage of isolates inhibited at MIC (Proteus mirabilis; 16 μg/mL): 72.0%
Number of test isolates at MIC (Proteus mirabilis; 16 μg/mL): 2
Cumulative percentage of isolates inhibited at MIC (Proteus mirabilis; 32 μg/mL): 82.0%
Number of test isolates at MIC (Proteus mirabilis; 32 μg/mL): 5
Cumulative percentage of isolates inhibited at MIC (Proteus mirabilis; 64 μg/mL): 90.0%
Number of test isolates at MIC (Proteus mirabilis; 64 μg/mL): 4
Cumulative percentage of isolates inhibited at MIC (Proteus mirabilis; 128 μg/mL): 98.0%
Number of test isolates at MIC (Proteus mirabilis; 128 μg/mL): 4
Cumulative percentage of isolates inhibited at MIC (Proteus mirabilis; >128 μg/mL): 100.0%
Number of test isolates at MIC (Proteus mirabilis; >128 μg/mL): 1
MIC50 (Proteus mirabilis; Proteus mirabilis, read-out: MIC50): 0.5 µg/mL (≈ 1.25 µM)
MIC90 (Proteus mirabilis; Proteus mirabilis, read-out: MIC90): 64 µg/mL (≈ 159 µM)

piperacillin/tazobactam [piperacillin-tazobactam]
% I (Pseudomonas aeruginosa): 14%
% R (Pseudomonas aeruginosa): 22%
% S (Pseudomonas aeruginosa): 64%
MIC50 (Pseudomonas aeruginosa): 8 µg/mL
MIC90 (Pseudomonas aeruginosa): >128 µg/mL
Mode (Pseudomonas aeruginosa): 4 µg/mL
Cumulative percentage of isolates inhibited at MIC (Pseudomonas aeruginosa; 2 μg/mL): 6.0%
Number of test isolates at MIC (Pseudomonas aeruginosa; 2 μg/mL): 3
Cumulative percentage of isolates inhibited at MIC (Pseudomonas aeruginosa; 4 μg/mL): 40.0%
Number of test isolates at MIC (Pseudomonas aeruginosa; 4 μg/mL): 17
Cumulative percentage of isolates inhibited at MIC (Pseudomonas aeruginosa; 8 μg/mL): 60.0%
Number of test isolates at MIC (Pseudomonas aeruginosa; 8 μg/mL): 10
Cumulative percentage of isolates inhibited at MIC (Pseudomonas aeruginosa; 16 μg/mL): 64.0%
Number of test isolates at MIC (Pseudomonas aeruginosa; 16 μg/mL): 2
Cumulative percentage of isolates inhibited at MIC (Pseudomonas aeruginosa; 32 μg/mL): 74.0%
Number of test isolates at MIC (Pseudomonas aeruginosa; 32 μg/mL): 5
Cumulative percentage of isolates inhibited at MIC (Pseudomonas aeruginosa; 64 μg/mL): 78.0%
Number of test isolates at MIC (Pseudomonas aeruginosa; 64 μg/mL): 2
Cumulative percentage of isolates inhibited at MIC (Pseudomonas aeruginosa; 128 μg/mL): 84.0%
Number of test isolates at MIC (Pseudomonas aeruginosa; 128 μg/mL): 3
Cumulative percentage of isolates inhibited at MIC (Pseudomonas aeruginosa; >128 μg/mL): 100.0%
Number of test isolates at MIC (Pseudomonas aeruginosa; >128 μg/mL): 8
% I (Enterobacter aerogenes): 16%
% R (Enterobacter aerogenes): 8%
% S (Enterobacter aerogenes): 76%
MIC50 (Enterobacter aerogenes): 4 µg/mL
MIC90 (Enterobacter aerogenes): 64 µg/mL
Mode (Enterobacter aerogenes): 2 µg/mL
Cumulative percentage of isolates inhibited at MIC (Enterobacter aerogenes; 1 μg/mL): 4.0%
Number of test isolates at MIC (Enterobacter aerogenes; 1 μg/mL): 2
Cumulative percentage of isolates inhibited at MIC (Enterobacter aerogenes; 2 μg/mL): 38.0%
Number of test isolates at MIC (Enterobacter aerogenes; 2 μg/mL): 17
Cumulative percentage of isolates inhibited at MIC (Enterobacter aerogenes; 4 μg/mL): 62.0%
Number of test isolates at MIC (Enterobacter aerogenes; 4 μg/mL): 12
Cumulative percentage of isolates inhibited at MIC (Enterobacter aerogenes; 8 μg/mL): 74.0%
Number of test isolates at MIC (Enterobacter aerogenes; 8 μg/mL): 6
Cumulative percentage of isolates inhibited at MIC (Enterobacter aerogenes; 16 μg/mL): 76.0%
Number of test isolates at MIC (Enterobacter aerogenes; 16 μg/mL): 1
Cumulative percentage of isolates inhibited at MIC (Enterobacter aerogenes; 32 μg/mL): 88.0%
Number of test isolates at MIC (Enterobacter aerogenes; 32 μg/mL): 6
Cumulative percentage of isolates inhibited at MIC (Enterobacter aerogenes; 64 μg/mL): 92.0%
Number of test isolates at MIC (Enterobacter aerogenes; 64 μg/mL): 2
Cumulative percentage of isolates inhibited at MIC (Enterobacter aerogenes; 128 μg/mL): 98.0%
Number of test isolates at MIC (Enterobacter aerogenes; 128 μg/mL): 3
Cumulative percentage of isolates inhibited at MIC (Enterobacter aerogenes; >128 μg/mL): 100.0%
Number of test isolates at MIC (Enterobacter aerogenes; >128 μg/mL): 1
% S (Proteus mirabilis): 100%
MIC50 (Proteus mirabilis): 0.25 µg/mL
MIC90 (Proteus mirabilis): 1 µg/mL
MIC range (Proteus mirabilis): ≤0.12 to 2 µg/mL
Mode (Proteus mirabilis): 0.25 µg/mL
Cumulative percentage of isolates inhibited at MIC (Proteus mirabilis; 0.5 μg/mL): 82.0%
Number of test isolates at MIC (Proteus mirabilis; 0.5 μg/mL): 16
Cumulative percentage of isolates inhibited at MIC (Proteus mirabilis; 1 μg/mL): 96.0%
Number of test isolates at MIC (Proteus mirabilis; 1 μg/mL): 7
Cumulative percentage of isolates inhibited at MIC (Proteus mirabilis; 2 μg/mL): 100.0%
Number of test isolates at MIC (Proteus mirabilis; 2 μg/mL): 2
Cumulative percentage of isolates inhibited at MIC (Proteus mirabilis; […]): 50.0%
Number of test isolates at MIC (Proteus mirabilis; […]): 22
Cumulative percentage of isolates inhibited at MIC (Proteus mirabilis; ≤[…]): 6.0%
Number of test isolates at MIC (Proteus mirabilis; ≤[…]): 3
